Publication PMC5686155, “Crystal structures of the mitochondrial deacylase Sirtuin 4 reveal isoform-specific acyl recognition and regulation features” (Nature Communications, 2017)

Experiments:
[1] = target: T1, hSirt4 (Homo sapiens, UniProt Q9Y6E7); test: Coupled continuous enzymatic assay monitoring NAM release from NAD+ (Sirt4 deacylation); type: biochemical; conditions: coupled enzymatic assay; for Sirt4 deacylation signal with CypA protein as substrate: increasing amounts of protein substrate, n = 2 (Fig. 1f); for effect on Sirt4 de-HMG-ylation activity: HMG-CPS1 peptide
T1 construct: hSirt4(25–314) in pQE30 coding for an N-terminal His6-tag; His6 (N); made in house; host or cells: Escherichia coli CodonPlus(DE3)
T1 sequence (Q9Y6E7 25-314): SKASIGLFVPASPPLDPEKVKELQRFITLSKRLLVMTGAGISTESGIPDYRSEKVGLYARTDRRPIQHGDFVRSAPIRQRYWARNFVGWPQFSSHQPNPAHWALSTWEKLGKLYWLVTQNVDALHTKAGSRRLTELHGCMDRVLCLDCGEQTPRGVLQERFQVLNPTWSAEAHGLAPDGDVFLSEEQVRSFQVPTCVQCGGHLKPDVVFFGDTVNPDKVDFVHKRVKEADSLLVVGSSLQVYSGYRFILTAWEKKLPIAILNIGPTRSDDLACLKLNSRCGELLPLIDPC
Description: The seven mammalian sirtuins vary in their sequence and acyl preferences[16],[19]. […] We therefore asked whether other acyl modifications would yield deacylation efficiencies expected for a physiologically dominant Sirt4 activity.
The coupled continuous assay was performed as reported. […] Reactions were monitored in microplates at room temperature for 1 h through absorption measurements at 340 nm in a LAMBDAScan plate reader (MWG Biotech, Ebersberg, Germany).

[2] = target: T1, hSirt4; test: HMG-FdL (Fluor-de-Lys-like) de-HMG-ylation assay; type: biochemical
Description: As a convenient and complementary, fluorescence-based alternative to the coupled enzymatic assay with HMG-peptides, we established substrate and assay corresponding to the popular “Fluor-de-Lys” (FdL) deacylation assays. […] We then employed the FdL-like Sirt4 assay for studying the effects of NAM and NADH, which are not compatible with the coupled assay. […] After 20 min, developer solution (2 mM NAM and 10 mg mL^−1 trypsin) in assay buffer was added 1:1 and samples were incubated for 45 min at room temperature. Fluorescence was measures using a FluoDia T70 with excitation wavelength 365 nm and emission wavelength 465 nm.

[3] = system: xSirt4; test: Thermal denaturation shift assay; type: binding, Xenopus tropicalis; conditions: 3 µM xSirt4, SYPRO orange, 20 to 73 °C; n = 2
Description: Thermal shift assays were performed in 96-well PCR plates using 3 µM xSirt4 (32–315) or 3 µM zSirt4 (29–310) and SYPRO orange (Thermo Fisher, Waltham, MA, USA) covered with 15 µL mineral oil. Heating and fluorescence measurements were performed in a FluoDia T70 with 1 K steps from 20 to 73 °C (excitation: 465 nm, emission: 580 nm). The data were analyzed in GraFit (Erithacus Software Ltd, Horley, UK) by nonlinear fitting using a two state model.

[4] = non-enzymatic; cited from earlier work
Excerpt: Acetyl transferases employ acetyl-CoA for modifying proteins. However, acetyl-CoA can also non-enzymatically modify proteins, and some other acyl-CoA, such as succinyl-CoA, do so even more efficiently, likely causing the emerging variety of protein acylations[14],[28],[29],[31]. We thus analyzed whether HMG-CoA efficiently acylates peptides and proteins.

[5] = system: xSirt4; test: MS-based assay of metabolite effects on xSirt4 activity; type: biochemical, Xenopus tropicalis; conditions: n = 2 (Supplementary Fig. 3b)
Description: For MS and UV analyzes of deacylation reactions, samples were prepared as described for the coupled continuous assay, stopped by mixing 1:1 with 0.5% TFA after 0 and 60 min, diluted to 20 µM peptide using 0.1% FA, and analyzed by HPLC-separation using a Shimadzu Prominence UFLC (Shimadzu, Duisburg, Germany) coupled to ESI-MS and UV detection. Samples were washed on a Piccolo Proto 200 C4 5 μm 2.5 × 0.5 mm trap column (Higgins Analytical, Mountain View, California) and subsequently subjected to a Jupiter C4 5 μm 300 Å 150 × 1 mm analytical column (Phenomenex, Torrance, California) for reversed phase separation, with 99.9% H2O, 0.1% TFA as buffer A and 99.9% ACN, 0.1% TFA as buffer B. Peptides were eluted over a 20 min gradient from 1 to 55% buffer B, followed by 1 min from 55 to 90% buffer B with 70 µL min^−1 flow-rate. […] We detected in a mass range from 300 to 2500 m/z. […]
Supplementary Figure 3. […] (n=2; error bars: s.d.) e, Inner surfaces of the nucleotide binding sites of Sirt1-6, colored by electrostatic potential calculated with APBS2.1 in PyMOL using PDB IDs 4KXQ (Sirt1), 5D7O (Sirt2), 4BN4 (Sirt3), our xSirt4 structure, PDB IDs 3RIY (Sirt5) and 3K35 (Sirt6). […] The surfaces are colored according to electrostatic potential (red/-15 to blue/+15 kBT/e). f, xSirt4 surface colored by electrostatic potential calculated using APBS2.1 in PyMOL (red/-15 to blue/+15 kBT/e). […]

[6] = target: T2, Cyclophilin A (CypA) (Homo sapiens, UniProt P62937); test: HMG-CoA modification of recombinant Cyclophilin A, intact protein MS; conditions: CypA 0.4 mg/ml, 8 mM HMG-CoA, 100 mM Tris-HCl pH 8.3, 37 °C, 4 h
T2 construct: expression of a full-length CypA construct in pQE70 (Qiagen) in E. coli M15 cells; made in house; host or cells: E. coli M15
Description: The recombinant CypA was prepared through expression of a full-length CypA construct in pQE70 (Qiagen) in E. coli M15 cells and purification by ion exchange chromatography on Fractogel EMD DEAE-650(M), Fractogel TSK AF-Blue, and Fractogel SO3–650(M) (Merck Millipore)[29]. CypA protein (0.4 mg ml^−1) was modified using 8 mM HMG-CoA in 100 mM Tris-HCl buffer pH 8.3 at 37 °C for 4 h. Formation of HMG-ylated protein was confirmed by peptide-MS analyzes after tryptic digest, and by intact HMG-CypA mass analyzes through HPLC-coupled ESI-MS[56]. For intact mass determination, 25 µM HMG-CypA in 10 mM Tris/HCl pH 7.5, 50 mM NaCl was HPLC-separated with the setting described below for peptide MS, using a 30 min gradient from 1 to 55% buffer B (90% ACN, 9.9% H2O, 0.1% FA; buffer A: 5% ACN, 94.9% H2O, 0.1% FA) followed by 1 min of 55–90% buffer B with 70 µL min^−1 flow-rate. MS-analyzes were done with the settings described for peptide assays (below), except that the IntactProtein script was activated, which reduces CEM to 100. Acquired data were extracted with PeakView and deconvoluted in MassLynx in the range of 950–1500 m/z using the MaxEnt I algorithm to a resolution of 1 Da. Peak intensity values were recorded and overlaid using MassLynx.

[7] = Non-enzymatic acylation of CPS1 peptide by acyl-CoA (titration); conditions: HMG-CoA titrations
[8] = 10 and 100 μM compound, n = 2 (Fig. 4a)

T2 sequence (P62937 whole entry): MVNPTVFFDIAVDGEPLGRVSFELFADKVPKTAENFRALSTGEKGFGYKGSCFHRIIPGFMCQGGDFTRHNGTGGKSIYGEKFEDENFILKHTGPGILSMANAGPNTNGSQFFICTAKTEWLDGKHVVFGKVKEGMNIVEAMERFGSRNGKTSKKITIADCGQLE

For “Unmodified CypA: recombinant Cyclophilin A, untreated”, the “Sirt4 deacylation signal with CypA protein as substrate” value [1] was “did not yield a significant deacylation signal”.
For `O=C(Nc1ccccc1-c1cn2c(CN3CCNCC3)csc2n1)c1cnc2ccccc2n1` [SRT1720], the “effect on Sirt4 activity in HMG-FdL assay” value ([2]; 1 µM hSirt4, 500 µM HMG-FdL substrate, 500 µM NAD+, n = 2 (Fig. 4c)) was “no effect on Sirt4 activity” and the “effect on Sirt4 de-HMG-ylation activity” value ([1]; 100 μM compound, high error, effect already in control reaction (assay incompatibility)) was “weak signal decrease”.
For `CC(NC(=O)c1ccccc1/N=C/c1c(O)ccc2ccccc12)c1ccccc1` (centres unmarked) [sirtinol], the “effect on Sirt4 de-HMG-ylation activity” value [1, 8] was “no significant effect”.
With “HMG-CypA: recombinant Cyclophilin A modified with HMG-CoA (1–7 HMG-modifications)” the “Sirt4 deacylation signal with CypA protein as substrate” value [1] was “strong, substrate concentration dependent signal”.
In the case of `NC(=O)c1cccnc1` [NAM, nicotinamide], the “Sirt4 stabilization in thermal denaturation shift experiments” value [3] is reported as “no pronounced effects”.
In the case of `Oc1ccc(/C=C/c2cc(O)cc(O)c2)cc1` [resveratrol], the “effect on Sirt4 de-HMG-ylation activity” value [1, 8] is reported as “no significant effect”.
In the case of `Cc1cc(=O)oc2cc(NC(=O)[C@H](CCCCNC(=O)CC(C)(O)CC(=O)O)NC(=O)OCc3ccccc3)ccc12` (stereo partly drawn) [HMG-FdL substrate, 5-(((S)−5-(((benzyloxy)carbonyl)amino)-6-((4-methyl-2-oxo-2H-chromen-7-yl)amino)-6-oxohexyl)amino)-3-hydroxy-3-methyl-5-oxopentanoic acid], the “acceptance as Sirt4 substrate” value ([2]; FdL procedure, fluorescence) is reported as “readily accepted by Sirt4”.
For `CC(=O)SCCNC(=O)CCNC(=O)[C@H](O)C(C)(C)COP(=O)(O)OP(=O)(O)OC[C@H]1O[C@@H](n2cnc3c(N)ncnc32)[C@H](O)[C@@H]1OP(=O)(O)O` [acetyl-CoA], the “bimolecular rate constant k of CPS1 peptide acylation” value [4] is given as “(1.5 ± 0.4)×10^–10 μM^−1 s^−1”.
For `O=C(O)CCCC[C@@H]1CCSS1` (racemic) [lipoic acid], the “effect on Sirt4 de-HMG-ylation activity” value [5] was “inhibits” and the “effect on Sirt4 deacetylation activity” value [5] was “inhibits”.
With `CC(C)(CO[P@@](=O)(O)O[P@@](=O)(O)OC[C@H]1O[C@@H](n2cnc3c(N)ncnc32)[C@H](O)[C@@H]1OP(=O)(O)O)[C@@H](O)C(=O)NCCC(=O)NCCSC(=O)C[C@@](C)(O)CC(=O)O` [HMG-CoA] the “number of HMG-modifications on CypA” value [6] was 1–7 and the “bimolecular rate constant of CPS1 peptide acylation” value [7] was “(4.0 ± 0.8)×10^–10 μM^−1 s^−1”.
With `Nc1ncnc2c1ncn2[C@@H]1O[C@H](COP(=O)(O)OP(=O)(O)OC[C@H]2OC(O)[C@H](O)[C@@H]2O)[C@@H](O)[C@H]1O` (some centres unmarked) [ADPr, ADP-ribose] the “Sirt4 stabilization in thermal denaturation shift experiments” value [3] was “significant Sirt4 stabilization”.
